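Growth conditions: 96-well plates. Treatment: test compound, 48 hours, 5 concentrations. Analysis: linear interpolation between bracketing concentrations; unreached endpoints set to highest concentration. The concentration for full growth arrest is given as TGI.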
What was measured:
Assay in all cases: NCI tumour cell line growth inhibition, 48 h
NCI-H23 lung = system: NCI-H23 lung
SK-OV-3 ovarian = system: SK-OV-3 ovarian
HOP-92 NSCLC = system: HOP-92 NSCLC
NCI/ADR-RES ovarian = system: NCI/ADR-RES ovarian
HCT-116 colon = system: HCT-116 colon
SR leukemia = system: SR leukemia
SW-620 colon = system: SW-620 colon
A498 renal = system: A498 renal
HS 578T breast = system: HS 578T breast
HOP-62 NSCLC = system: HOP-62 NSCLC
RPMI-8226 leukemia = system: RPMI-8226 leukemia
UACC-62 melanoma = system: UACC-62 melanoma
IGROV1 ovarian = system: IGROV1 ovarian
SNB-19 CNS = system: SNB-19 CNS
OVCAR-8 ovarian = system: OVCAR-8 ovarian
CCRF-CEM leukemia = system: CCRF-CEM leukemia
OVCAR-4 ovarian = system: OVCAR-4 ovarian
U251 CNS = system: U251 CNS
MDA-N = system: MDA-N
UACC-257 melanoma = system: UACC-257 melanoma
K-562 leukemia = system: K-562 leukemia
LOX IMVI melanoma = system: LOX IMVI melanoma
A549 NSCLC = system: A549 NSCLC
SK-MEL-2 melanoma = system: SK-MEL-2 melanoma
M14 melanoma = system: M14 melanoma
BT-549 breast = system: BT-549 breast
HCT-15 colon = system: HCT-15 colon
MDA-MB-435 = system: MDA-MB-435
MOLT-4 leukemia = system: MOLT-4 leukemia
COLO 205 colon = system: COLO 205 colon
NCI-H522 lung = system: NCI-H522 lung
MDA-MB-231 breast = system: MDA-MB-231 breast
SF-539 CNS = system: SF-539 CNS
TK-10 renal = system: TK-10 renal
ACHN renal = system: ACHN renal
HL-60(TB) leukemia = system: HL-60(TB) leukemia
CAKI-1 renal = system: CAKI-1 renal
SF-268 CNS = system: SF-268 CNS
UO-31 renal = system: UO-31 renal
NCI-H460 lung = system: NCI-H460 lung
PC-3 prostate = system: PC-3 prostate
SK-MEL-5 melanoma = system: SK-MEL-5 melanoma
SN12C renal = system: SN12C renal
MCF7 breast = system: MCF7 breast
EKVX NSCLC = system: EKVX NSCLC
786-0 renal = system: 786-0 renal
OVCAR-3 ovarian = system: OVCAR-3 ovarian
DU-145 prostate = system: DU-145 prostate
SF-295 CNS = system: SF-295 CNS
NCI-H226 lung = system: NCI-H226 lung
T-47D breast = system: T-47D breast
SK-MEL-28 melanoma = system: SK-MEL-28 melanoma
MALME-3M melanoma = system: MALME-3M melanoma
SNB-75 CNS = system: SNB-75 CNS
HT29 colon = system: HT29 colon
OVCAR-5 ovarian = system: OVCAR-5 ovarian
HCC-2998 colon = system: HCC-2998 colon
KM12 colon = system: KM12 colon
RXF 393 renal = system: RXF 393 renal

Measured: TGI

[N-]=[N+]=NC1C(O)C(CO)OC1n1ccc(=O)[nH]c1=O (stereo unspecified)
not listed: RXF 393 renal
> 875 µM: all other assays above

[N-]=[N+]=Nc1cc(=O)n2c3c(cccc13)CCC2
not listed: SK-OV-3 ovarian | SNB-19 CNS | SK-MEL-2 melanoma | CAKI-1 renal | SK-MEL-5 melanoma | OVCAR-5 ovarian
> 100 µM: all other assays above
